Active and inactive are the calls of the source. The rule behind the calls is not given here.
Tests used:
Format in all cases: functional
Pseudomonas aeruginosa [1] = test: Antimicrobial activity against Pseudomonas aeruginosa assessed as zone of inhibition at 75 ug/well after 24 hrs by agar well diffusion method; conditions: for zone of inhibition at 75 µg/disc: read-out: DIZ
Staphylococcus aureus [2] = test: Antimicrobial activity against Staphylococcus aureus assessed as zone of inhibition at 50 ug/well after 24 hrs by agar well diffusion method; conditions: for zone of inhibition at 50 µg/disc: read-out: DIZ
Pseudomonas aeruginosa [3] = test: Antimicrobial activity against Pseudomonas aeruginosa assessed as zone of inhibition at 100 ug/well after 24 hrs by agar well diffusion method; conditions: for zone of inhibition at 100 µg/disc: read-out: DIZ
Aspergillus niger [4] = test: Antifungal activity against Aspergillus niger assessed as zone of inhibition at 50 ug/well after 48 hrs by agar well diffusion method; conditions: for zone of inhibition at 50 µg/disc: read-out: DIZ
Aspergillus niger [5] = test: Antifungal activity against Aspergillus niger assessed as zone of inhibition at 100 ug/well after 48 hrs by agar well diffusion method; conditions: for zone of inhibition at 100 µg/disc: read-out: DIZ
Pseudomonas aeruginosa [6] = test: Antimicrobial activity against Pseudomonas aeruginosa assessed as zone of inhibition at 50 ug/well after 24 hrs by agar well diffusion method; conditions: for zone of inhibition at 50 µg/disc: read-out: DIZ
Bacillus subtilis [7] = test: Antimicrobial activity against Bacillus subtilis assessed as zone of inhibition at 100 ug/well after 24 hrs by agar well diffusion method; conditions: for zone of inhibition at 100 µg/disc: read-out: DIZ
Aspergillus niger [8] = test: Antifungal activity against Aspergillus niger assessed as zone of inhibition at 75 ug/well after 48 hrs by agar well diffusion method; conditions: for zone of inhibition at 75 µg/disc: read-out: DIZ
Klebsiella pneumoniae [9] = test: Antimicrobial activity against Klebsiella pneumoniae assessed as zone of inhibition at 50 ug/well after 24 hrs by agar well diffusion method; conditions: for zone of inhibition at 50 µg/disc: read-out: DIZ
Klebsiella pneumoniae [10] = test: Antimicrobial activity against Klebsiella pneumoniae assessed as zone of inhibition at 100 ug/well after 24 hrs by agar well diffusion method; conditions: for zone of inhibition at 100 µg/disc: read-out: DIZ
Penicillium chrysogenum [11] = test: Antifungal activity against Penicillium chrysogenum assessed as zone of inhibition at 100 ug/well after 48 hrs by agar well diffusion method; conditions: for zone of inhibition at 100 µg/disc: read-out: DIZ
Klebsiella pneumoniae [12] = test: Antimicrobial activity against Klebsiella pneumoniae assessed as zone of inhibition at 75 ug/well after 24 hrs by agar well diffusion method; conditions: for zone of inhibition at 75 µg/disc: read-out: DIZ
Bacillus subtilis [13] = test: Antimicrobial activity against Bacillus subtilis assessed as zone of inhibition at 50 ug/well after 24 hrs by agar well diffusion method; conditions: for zone of inhibition at 50 µg/disc: read-out: DIZ
Staphylococcus aureus [14] = test: Antimicrobial activity against Staphylococcus aureus assessed as zone of inhibition at 100 ug/well after 24 hrs by agar well diffusion method; conditions: for zone of inhibition at 100 µg/disc: read-out: DIZ
Penicillium chrysogenum [15] = test: Antifungal activity against Penicillium chrysogenum assessed as zone of inhibition at 75 ug/well after 48 hrs by agar well diffusion method; conditions: for zone of inhibition at 75 µg/disc: read-out: DIZ
Bacillus subtilis [16] = test: Antimicrobial activity against Bacillus subtilis assessed as zone of inhibition at 75 ug/well after 24 hrs by agar well diffusion method; conditions: for zone of inhibition at 75 µg/disc: read-out: DIZ
Penicillium chrysogenum [17] = test: Antifungal activity against Penicillium chrysogenum assessed as zone of inhibition at 50 ug/well after 48 hrs by agar well diffusion method
Staphylococcus aureus [18] = test: Antimicrobial activity against Staphylococcus aureus assessed as zone of inhibition at 75 ug/well after 24 hrs by agar well diffusion method; conditions: for zone of inhibition at 75 µg/disc: read-out: DIZ

Row | SMILES | diameter of the inhibition zone (DIZ) (Pseudomonas aeruginosa [1]) | diameter of the inhibition zone (DIZ) (Staphylococcus aureus [2]) | diameter of the inhibition zone (DIZ) (Pseudomonas aeruginosa [3]) | zone of inhibition at 50 µg/disc (Aspergillus niger [4]) [mm] | zone of inhibition at 100 µg/disc (Aspergillus niger [5]) [mm] | diameter of the inhibition zone (DIZ) (Pseudomonas aeruginosa [6]) | zone of inhibition at 100 µg/disc (Bacillus subtilis [7]) [mm] | zone of inhibition at 75 µg/disc (Aspergillus niger [8]) [mm] | diameter of the inhibition zone (DIZ) (Klebsiella pneumoniae [9]) | zone of inhibition at 100 µg/disc (Klebsiella pneumoniae [10]) [mm] | zone of inhibition at 100 µg/disc (Penicillium chrysogenum [11]) [mm] | diameter of the inhibition zone (DIZ) (Klebsiella pneumoniae [12]) | zone of inhibition at 50 µg/disc (Bacillus subtilis [13]) [mm] | diameter of the inhibition zone (DIZ) (Staphylococcus aureus [14]) | diameter of the inhibition zone (DIZ) (Penicillium chrysogenum [15]) | zone of inhibition at 75 µg/disc (Bacillus subtilis [16]) [mm] | diameter of the inhibition zone (DIZ) (Penicillium chrysogenum [17]) | diameter of the inhibition zone (DIZ) (Staphylococcus aureus [18]) | zone of inhibition at 75 µg/disc (Pseudomonas aeruginosa [1]) [mm] | zone of inhibition at 50 µg/disc (Staphylococcus aureus [2]) [mm] | also measured
1 | O=C(NS(=O)(=O)C1C(c2ccccc2)=NN(c2ccccc2)C1c1ccccc1)c1ccc(Cl)s1 (configuration not stated) | inactive | inactive | inactive | 8 | 13 | inactive | 15 | 11 | inactive | 11 | 9 | inactive | 8 | inactive | inactive | 11 | inactive | inactive | – | – | –
2 | O=C(NS(=O)(=O)C1C(c2ccccc2)=NN(c2ccccc2)C1c1ccccc1)c1cccs1 (configuration not stated) | inactive | inactive | inactive | – | – | inactive | – | – | inactive | – | – | inactive | – | inactive | inactive | – | inactive | inactive | – | – | diameter of the inhibition zone (DIZ) (Aspergillus niger [4]): inactive; diameter of the inhibition zone (DIZ) (Aspergillus niger [5]): inactive; diameter of the inhibition zone (DIZ) (Bacillus subtilis [7]): inactive; diameter of the inhibition zone (DIZ) (Aspergillus niger [8]): inactive; diameter of the inhibition zone (DIZ) (Klebsiella pneumoniae [10]): inactive; diameter of the inhibition zone (DIZ) (Penicillium chrysogenum [11]): inactive; diameter of the inhibition zone (DIZ) (Bacillus subtilis [13]): inactive; diameter of the inhibition zone (DIZ) (Bacillus subtilis [16]): inactive
3 | O=C(NS(=O)(=O)c1c(-c2ccccc2)nn(-c2ccccc2)c1-c1ccccc1)c1ccc(Cl)s1 | – | – | – | 18 | 25 | – | 32 | 21 | – | 27 | 17 | – | 25 | – | – | 28 | – | – | 16 | 19 | zone of inhibition at 100 µg/disc (Pseudomonas aeruginosa [3]): 19 mm; zone of inhibition at 50 µg/disc (Pseudomonas aeruginosa [6]): 14 mm; zone of inhibition at 50 µg/disc (Klebsiella pneumoniae [9]): 23 mm; zone of inhibition at 75 µg/disc (Klebsiella pneumoniae [12]): 25 mm; zone of inhibition at 100 µg/disc (Staphylococcus aureus [14]): 24 mm; zone of inhibition at 75 µg/disc (Penicillium chrysogenum [15]): 15 mm; zone of inhibition at 50 µg/disc (Penicillium chrysogenum [17]; read-out: DIZ): 13 mm; zone of inhibition at 75 µg/disc (Staphylococcus aureus [18]): 21 mm
4 | O=C(NS(=O)(=O)/C=C/c1ccccc1)c1cccs1 | – | – | – | 10 | 15 | – | 23 | 13 | – | 19 | 11 | – | 18 | – | – | 21 | inactive | – | 9 | 12 | zone of inhibition at 100 µg/disc (Pseudomonas aeruginosa [3]): 10 mm; zone of inhibition at 50 µg/disc (Pseudomonas aeruginosa [6]): 7 mm; zone of inhibition at 50 µg/disc (Klebsiella pneumoniae [9]): 15 mm; zone of inhibition at 75 µg/disc (Klebsiella pneumoniae [12]): 18 mm; zone of inhibition at 100 µg/disc (Staphylococcus aureus [14]): 17 mm; zone of inhibition at 75 µg/disc (Penicillium chrysogenum [15]): 8 mm; zone of inhibition at 75 µg/disc (Staphylococcus aureus [18]): 16 mm

— ChEMBL document CHEMBL4251595, “Green approach for the synthesis of thiophenyl pyrazoles and isoxazoles by adopting 1,3-dipolar cycloaddition methodology and their antimicrobial activity” (2018)
